# Laboratory results reported in patent US10583137B2, “Triazole DAGLα inhibitors” (THE SCRIPPS RESEARCH INSTITUTE, priority 2015, dated 2020).
# Like-named read-outs stand apart in the source and are kept apart here.
# Assays:
# [1] = biological target: DAGLβ (hDAGLβ-FLAG) (Homo sapiens (Human), UniProt Q8NCG7); assay: competitive ABPP, membrane proteome of transfected HEK293T cells; type: biochemical; conditions: for inhibition at 0.4 µM: read-out: DAGLβ % inh. 0.4 μM; for inhibition at 0.0032 µM: read-out: DAGLβ % inh. 3.2 nM; for inhibition at 0.8 µM: 0.8 μM (stated under the cell), read-out: DAGLβ % inh. 0.8 μM
# Experimental: (§1) Compounds 19 and 20 were tested for in vitro inhibition of DAGLα and DAGLβ as measured by competitive activity-based protein profiling (ABPP) of […] using a HT-01 probe (targets DAGLα and DAGLβ) and a FP-Rh probe (targets serine hydrolases).
# (§2) Briefly, membrane proteome (1 mg/ml, 20 μL) was prepared from HEK293T cells (transiently transfected with hDAGLα-FLAG or hDAGLα-S472A-FLAG, hDAGLβ-FLAG or hDAGLβ-S443A-FLAG) as described in Example 16. The proteome was incubated at room temperature with vehicle (DMSO) or compound in 0.5 μL DMSO for 30 min. The membrane proteome sample was subsequently treated for 30 min with HT-01 probe (1 μM) or FP-Rh probe (1 μM). The reactions were quenched with 10 μL 3× Laemmli sample buffer (final concentrations: 60 mM Tris-Cl pH 6.8, 2% (w/v) SDS, 10% (v/v) glycerol, 5% (v/v) (3-mercaptoethanol, 0.01% (v/v) bromophenol blue). The samples were directly loaded and resolved on SDS page gel (10% acrylamide). The gels were scanned using a ChemiDoc MP system (Cy3 settings, 605/50 filter).
# (§3) The resolved proteins were transferred from the gels to a polyvinyldifluoride membrane for Western Blotting using a Trans-Blot® Turbo (BioRad). FLAG-tagged enzymes were stained using rabbit anti-FLAG as primary antibody, and goat-anti-rabbit HRP as secondary antibody. The blot was developed in the dark using a 10 mL luminal solution, 100 μL ECL enhancer and 3 μL H2O2. Chemiluminescence was visualized using a ChemiDoc XRS (BioRad).
# (§4) The percentage of DAGL activity remaining in the assayed samples was determined by measuring the integrated optical intensity of the fluorescent protein bands of the Western Blot using image lab 4.1. The relative intensity was compared to the vehicle (DMSO) treated proteins, which were set to 100%. IC50 values were determined by plotting a log(inhibitor) vs. normalized response (Variable slope) dose-response curve generated using Prism software (GraphPad).
# [2] = biological target: DAGLα (hDAGLα-FLAG) (Homo sapiens (Human), UniProt Q9Y4D2); assay: as above; type: biochemical; conditions: for inhibition at 0.4 µM: read-out: DAGLα % inh. 0.4 μM; for inhibition at 0.0032 µM: 3.2 nM, read-out: DAGLα % inh. 3.2 nM; for inhibition at 0.8 µM: 0.8 μM (stated under the cell), read-out: DAGLα % inh. 0.8 μM
# Experimental: as §1, §2, §3, §4
# DAGLα (hDAGLα-FLAG), sequence (Q9Y4D2 whole entry): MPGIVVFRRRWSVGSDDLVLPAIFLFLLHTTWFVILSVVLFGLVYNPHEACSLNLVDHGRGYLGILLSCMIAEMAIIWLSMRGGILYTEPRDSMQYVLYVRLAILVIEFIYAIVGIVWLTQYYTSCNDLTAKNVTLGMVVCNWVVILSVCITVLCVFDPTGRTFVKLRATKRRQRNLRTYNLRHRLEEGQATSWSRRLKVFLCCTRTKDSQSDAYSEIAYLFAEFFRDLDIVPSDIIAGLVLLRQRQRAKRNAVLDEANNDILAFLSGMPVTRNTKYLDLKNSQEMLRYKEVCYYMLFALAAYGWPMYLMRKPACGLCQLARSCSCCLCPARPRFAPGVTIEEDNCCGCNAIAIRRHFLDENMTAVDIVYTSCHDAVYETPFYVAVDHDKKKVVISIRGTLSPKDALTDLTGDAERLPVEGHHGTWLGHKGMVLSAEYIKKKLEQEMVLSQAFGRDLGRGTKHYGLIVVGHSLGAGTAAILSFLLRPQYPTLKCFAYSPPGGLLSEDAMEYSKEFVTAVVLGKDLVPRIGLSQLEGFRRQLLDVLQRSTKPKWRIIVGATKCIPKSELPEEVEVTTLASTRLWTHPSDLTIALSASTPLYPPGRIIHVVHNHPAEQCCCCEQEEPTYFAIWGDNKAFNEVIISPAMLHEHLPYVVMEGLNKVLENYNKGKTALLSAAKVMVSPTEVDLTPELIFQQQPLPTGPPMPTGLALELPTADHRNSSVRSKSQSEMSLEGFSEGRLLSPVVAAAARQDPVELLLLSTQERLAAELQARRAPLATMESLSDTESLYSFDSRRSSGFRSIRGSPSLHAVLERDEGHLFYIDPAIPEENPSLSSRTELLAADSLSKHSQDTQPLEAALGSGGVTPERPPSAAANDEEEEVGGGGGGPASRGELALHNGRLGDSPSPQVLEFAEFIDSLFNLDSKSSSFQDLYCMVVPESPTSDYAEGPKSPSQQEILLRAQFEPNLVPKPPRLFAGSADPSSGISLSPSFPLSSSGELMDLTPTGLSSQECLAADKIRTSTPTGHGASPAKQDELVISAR
# DAGLβ (hDAGLβ-FLAG), sequence (Q8NCG7 whole entry): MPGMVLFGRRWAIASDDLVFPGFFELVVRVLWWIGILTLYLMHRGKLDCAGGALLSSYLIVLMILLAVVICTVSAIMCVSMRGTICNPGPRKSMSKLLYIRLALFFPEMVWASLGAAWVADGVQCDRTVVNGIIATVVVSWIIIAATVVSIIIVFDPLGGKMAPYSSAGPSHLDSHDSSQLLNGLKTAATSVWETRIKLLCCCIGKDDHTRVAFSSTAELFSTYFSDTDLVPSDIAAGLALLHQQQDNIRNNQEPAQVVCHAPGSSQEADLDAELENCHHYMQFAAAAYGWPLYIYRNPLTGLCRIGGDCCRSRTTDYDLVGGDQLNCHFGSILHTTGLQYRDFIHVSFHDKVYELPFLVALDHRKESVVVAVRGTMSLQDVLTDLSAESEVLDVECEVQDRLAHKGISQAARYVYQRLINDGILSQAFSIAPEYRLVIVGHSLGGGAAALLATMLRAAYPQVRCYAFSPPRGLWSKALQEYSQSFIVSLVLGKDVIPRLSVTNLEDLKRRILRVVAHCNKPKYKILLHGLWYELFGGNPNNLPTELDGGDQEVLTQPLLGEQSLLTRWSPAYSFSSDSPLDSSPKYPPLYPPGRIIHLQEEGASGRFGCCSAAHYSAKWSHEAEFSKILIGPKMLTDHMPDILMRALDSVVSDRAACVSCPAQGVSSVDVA
SMILES,IC50 ([1]; read-out: DAGLβ IC50),IC50 ([2]; read-out: DAGLα IC50),other results
"CC(C)(C)OC(=O)N1CCN(C(=O)n2cc(-c3ccc(OC(F)(F)F)cc3)nn2)[C@@H](Cc2ccccc2)C1 [Compound 102, tert-butyl (S)-3-benzyl-4-(4-(4-(trifluoromethoxy)phenyl)-1H-1,2,3-triazole-1-carbonyl)piperazine-1-carboxylate]",,,inhibition at 0.4 µM [1]: ≥ 75%; inhibition at 0.4 µM [2]: ≥ 75%
"CC(C)(C)OC(=O)N1CCN(C(=O)n2cc(-c3ccc(OC(F)(F)F)cc3)nn2)[C@H](Cc2ccccc2)C1 [Compound 100, tert-butyl (R)-3-benzyl-4-(4-(4-(trifluoromethoxy)phenyl)-1H-1,2,3-triazole-1-carbonyl)piperazine-1-carboxylate]",,,inhibition at 0.4 µM [1]: ≥ 75%; inhibition at 0.4 µM [2]: ≥ 75%
"COc1cc(OC)c(-c2ccc(-c3cn(C(=O)N4CCCCC4Cc4ccccc4)nn3)cc2)c(OC)c1 (stereo not drawn) [Compound 20, (2-Benzylpiperidin-1-yl)(4-(2′,4′,6′-trimethoxybiphenyl-4-yl)-1H-1,2,3-triazol-1-yl)methanone]",≤ 0.4 µM,≤ 0.4 µM,"IC50 ([1]; ABPP method, n=3, read-out: IC50, DAGLβ): 0.319 µM; IC50 ([2]; ABPP method, n=3, read-out: IC50, DAGLα): 0.016 µM"
"COc1ncnc(OC)c1-c1ccc(-c2cn(C(=O)N3CCCCC3Cc3ccccc3)nn2)cc1 (stereo not drawn) [Compound 82, (2-benzylpiperidin-1-yl)(4-(4-(4,6-dimethoxypyrimidin-5-yl)phenyl)-1H-1,2,3-triazol-1-yl)methanone]",≤ 0.4 µM,≤ 0.4 µM,
"O=C(N1C[C@@H](O)C=C[C@@H]1Cc1ccccc1)n1cc(-c2ccc(OC(F)(F)F)cc2)nn1 [Compound 114, ((3S,6S)-6-benzyl-3-hydroxy-3,6-dihydropyridin-1(2H)-yl)(4-(4-(trifluoromethoxy)phenyl)-1H-1,2,3-triazol-1-yl)methanone]",,,inhibition at 0.0032 µM [1]: 0 to 25%; inhibition at 0.0032 µM [2]: 0 to 25%
"CO[C@@H]1CC[C@H](Cc2ccccc2)N(C(=O)n2cc(-c3ccc(OC(F)(F)F)cc3)nn2)C1 [Compound 116, ((2R,5R)-2-benzyl-5-methoxypiperidin-1-yl)(4-(4-(trifluoromethoxy)phenyl)-1H-1,2,3-triazol-1-yl)methanone]",,,inhibition at 0.0032 µM [1]: 0 to 25%; inhibition at 0.0032 µM [2]: 25 to 50%
"COc1cc(C)cc(OC)c1-c1ccc(-c2cn(C(=O)N3CCCCC3Cc3ccccc3)nn2)cc1 (stereo not drawn) [Compound 64, (2-benzylpiperidin-1-yl)(4-(2′,6′-dimethoxy-4′-methyl-[1,1′-biphenyl]-4-yl)-1H-1,2,3-triazol-1-yl)methanone]",2 to 10 µM,≤ 0.4 µM,
"CC(C)(C)CN(CCc1ccccc1)C(=O)n1ncc(-c2ccc(OC(F)(F)F)cc2)n1 [Compound 127, N-neopentyl-N-phenethyl-4-(4-(trifluoromethoxy)phenyl)-2H-1,2,3-triazole-2-carboxamide]",≤ 0.4 µM,2 to 10 µM,
"CC(C)C(=O)N1CCN(C(=O)n2ncc(-c3ccc(OC(F)(F)F)cc3)n2)C(Cc2ccccc2)C1 (stereo not drawn) [Compound 27, 1-(3-benzyl-4-(4-(4-(trifluoromethoxy)phenyl)-2H-1,2,3-triazole-2-carbonyl)piperazin-1-yl)-2-methylpropan-1-one]",,,inhibition at 0.8 µM [1]: 0 to 25%; inhibition at 0.8 µM [2]: 0 to 25%
"O=C(N1CCCCC1COc1ccccc1)n1cc(-c2ccc(OC(F)(F)F)cc2)nn1 (stereo not drawn) [Compound 110, (2-(phenoxymethyl)piperidin-1-yl)(4-(4-(trifluoromethoxy)phenyl)-1H-1,2,3-triazol-1-yl)methanone]",,,inhibition at 0.0032 µM [1]: 0 to 25%; inhibition at 0.0032 µM [2]: 0 to 25%
"CC(C)(C)OC(=O)N1CCN(C(=O)n2ncc(-c3ccc(OC(F)(F)F)cc3)n2)C(Cc2ccccc2)C1 (stereo not drawn) [Compound 99, tert-butyl 3-benzyl-4-(4-(4-(trifluoromethoxy)phenyl)-2H-1,2,3-triazole-2-carbonyl)piperazine-1-carboxylate]",,,inhibition at 0.4 µM [1]: 0 to 25%; inhibition at 0.4 µM [2]: 0 to 25%
"O=C(N1C[C@H](OCC2CC2)CC[C@@H]1Cc1ccccc1)n1cc(-c2ccc(OC(F)(F)F)cc2)nn1 [Compound 120, ((2R,5R)-2-benzyl-5-(cyclopropylmethoxy)piperidin-1-yl)(4-(4-(trifluoromethoxy)phenyl)-1H-1,2,3-triazol-1-yl)methanone]",,,inhibition at 0.0032 µM [1]: 25 to 50%; inhibition at 0.0032 µM [2]: ≥ 75%
"CO[C@H]1CC[C@H](Cc2ccccc2)N(C(=O)n2cc(-c3ccc(OC(F)(F)F)cc3)nn2)C1 [Compound 118, ((2R,5S)-2-benzyl-5-methoxypiperidin-1-yl)(4-(4-(trifluoromethoxy)phenyl)-1H-1,2,3-triazol-1-yl)methanone]",,,inhibition at 0.0032 µM [1]: 0 to 25%; inhibition at 0.0032 µM [2]: 25 to 50%
"O=C(N1CCC=C[C@@H]1COCc1ccccc1)n1cc(-c2ccc(OC(F)(F)F)cc2)nn1 [Compound 106, (R)-(6-((benzyloxy)methyl)-3,6-dihydropyridin-1(2H)-yl)(4-(4-(trifluoromethoxy)phenyl)-1H-1,2,3-triazol-1-yl)methanone]",,,inhibition at 0.0032 µM [1]: 0 to 25%; inhibition at 0.0032 µM [2]: 0 to 25%
"C#CCCCC(=O)N1CCN(C(=O)n2ncc(-c3ccc(OC(F)(F)F)cc3)n2)C(Cc2ccccc2)C1 (stereo not drawn) [Compound 35, 1-(3-benzyl-4-(4-(4-(trifluoromethoxy)phenyl)-2H-1,2,3-triazole-2-carbonyl)piperazin-1-yl)hex-5-yn-1-one]",,,inhibition at 0.8 µM [1]: 0 to 25%; inhibition at 0.8 µM [2]: 0 to 25%
"O=C(N1CCCCC1COc1ccccc1)n1ncc(-c2ccc(OC(F)(F)F)cc2)n1 (stereo not drawn) [Compound 111, (2-(phenoxymethyl)piperidin-1-yl)(4-(4-(trifluoromethoxy)phenyl)-2H-1,2,3-triazol-2-yl)methanone]",,,inhibition at 0.0032 µM [1]: 0 to 25%; inhibition at 0.0032 µM [2]: 0 to 25%

# Continued, in another order:
IC50 ([1]; read-out: DAGLβ IC50),IC50 ([2]; read-out: DAGLα IC50),SMILES,other results
≤ 0.4 µM,≤ 0.4 µM,"COc1ccc(-c2cn(C(=O)N3CCCCC3Cc3ccccc3)nn2)cc1 (stereo not drawn) [Compound 87, (2-benzylpiperidin-1-yl)(4-(4-methoxyphenyl)-1H-1,2,3-triazol-1-yl)methanone]",
≤ 0.4 µM,≤ 0.4 µM,"O=C(N(CCc1ccccc1)C1CC1)n1cc(-c2ccc(OC(F)(F)F)cc2)nn1 [Compound 125, N-cyclopropyl-N-phenethyl-4-(4-(trifluoromethoxy)phenyl)-1H-1,2,3-triazole-1-carboxamide]",
2 to 10 µM,≤ 0.4 µM,"COc1cc(OC)c(-c2ccc(-c3cn(C(=O)N4CCCCC4Cc4ccncc4)nn3)cc2)c(OC)c1 (stereo not drawn) [Compound 67, (2-(pyridin-4-ylmethyl)piperidin-1-yl)(4-(2′,4′,6′-trimethoxy-[1,1′-biphenyl]-4-yl)-1H-1,2,3-triazol-1-yl)methanone]",
0.4 to 2 µM,0.4 to 2 µM,CCC(CC)CN(CCc1cccnc1)C(=O)n1ncc(-c2ccc(OC(F)(F)F)cc2)n1 [Compound 137],
> 10 µM,0.4 to 2 µM,"CN(C)C(=O)c1cccc(-c2ccc(-c3cn(C(=O)N4CCCCC4Cc4ccccc4)nn3)cc2)c1 (stereo not drawn) [Compound 76, 4′-(1-(2-benzylpiperidine-1-carbonyl)-1H-1,2,3-triazol-4-yl)-N,N-dimethyl-[1,1′-biphenyl]-3-carboxamide]",
≤ 0.4 µM,0.4 to 2 µM,"CCC(CC)CN(CCc1ccncc1)C(=O)n1cc(-c2ccc(OC(F)(F)F)cc2)nn1 [Compound 53, N-(2-Ethylbutyl)-N-(2-(pyridin-4-yl)ethyl)-4-(4-(trifluoromethoxy)phenyl)-1H-1,2,3-triazole-1-carboxamide]",
2 to 10 µM,0.4 to 2 µM,"CC(C)(C)CN(CCc1cccnc1)C(=O)n1ncc(-c2ccc(OC(F)(F)F)cc2)n1 [Compound 135, N-neopentyl-N-(2-(pyridin-3-yl)ethyl)-4-(4-(trifluoromethoxy)phenyl)-2H-1,2,3-triazole-1-carboxamide]",
> 10 µM,0.4 to 2 µM,"COc1cc(C(N)=O)cc(OC)c1-c1ccc(-c2cn(C(=O)N3CCCCC3Cc3ccccc3)nn2)cc1 (stereo not drawn) [Compound 78, 4′-(1-(2-benzylpiperidine-1-carbonyl)-1H-1,2,3-triazol-4-yl)-2,6-dimethoxy-[1,1′-biphenyl]-4-carboxamide]",
2 to 10 µM,≤ 0.4 µM,"COc1cnnc(OC)c1-c1ccc(-c2cn(C(=O)N3CCCCC3Cc3ccccc3)nn2)cc1 (stereo not drawn) [Compound 83, (2-benzylpiperidin-1-yl)(4-(4-(3,5-dimethoxypyridazin-4-yl)phenyl)-1H-1,2,3-triazol-1-yl)methanone]",
0.4 to 2 µM,2 to 10 µM,"O=C(N(CCc1ccccc1)C1CC1)n1ncc(-c2ccc(OC(F)(F)F)cc2)n1 [Compound 129, N-cyclopropyl-N-phenethyl-4-(4-(trifluoromethoxy)phenyl)-2H-1,2,3-triazole-2-carboxamide]",
